{"source": "patent US8440827B2", "about": "“Photolabile caged transition metal complexes and methods of using the same” (Duke University, priority 2008, dated 2013)", "key": {"[1]": {"details": "constant of the model, taken from literature; cited from earlier work"}, "[2]": {"assay": "Solubility of H2cage in solvents", "assay_type": "physicochemical", "source_text": "A ligand H2cage is obtained in a one-pot, two-step synthesis starting from 3-amino-3-(2-nitrophenyl)propionic acid. […] In the presence of Cu2+, however, protons are released from H2cage at pH 3.3 and 4.8, consistent with deprotonation of both amides."}, "[3]": {"assay": "Potentiometric titration of the apo-ligand H2cage", "assay_type": "physicochemical", "details": "pH range 2 to 12"}, "[4]": {"assay": "Potentiometric and pH-dependent spectrophotometric titrations of CuL", "assay_type": "physicochemical", "details": "for Log β (overall stability constant): pH-dependent spectrophotometric titration, 25° C., 0.1 M NaClO4, Specfit, refined", "protocol": "Cu(II) perchlorate solutions (0.1 M) were prepared from solid Cu(ClO4)2.6H2O and standardized with 0.05 M EDTA to a murexide endpoint in ammonia buffer. NaOH, HClO4, and NaClO4 solutions (0.1 M) were prepared with boiled nanopure deionized water and were degassed upon cooling to remove dissolved carbonate. NaOH solutions were standardized by titration with both 0.2 M HCl and potassium hydrogen phthalate to a phenolphthalein end point and were stored under Ar; HClO4 stock solutions were prepared from concentrated perchloric acid and standardized by titration with standard NaOH to a phenolphthalein end point. All solutions were degassed with Ar for 45 minutes prior to each experimental run.\nTitrations were carried out at 25° C. with 0.1 M NaClO4 supporting electrolyte in a 3-mL cuvette equipped with a pH probe, titrator tip, and stir bar, and blanketed in Ar to preserve an inert environment. The glass-bulb probe (Orion combination pH electrode model 8103BN filled with 3 M NaCl) was calibrated with pH 4 and 7 standard reference buffers (RICCA Chemical Company). CuL solutions were prepared by dissolving [Cu(OH2)(cage)] recrystallized from methanol in 0.1 M NaClO4 to obtain CuL concentrations in the range of 0.5 mM. Initial volumes were between 2 and 2.2 mL. A Schott TITRONIC® 110 plus autotitrator kept under constant Ar sparge was used to deliver 2 to 4 μL aliquots of acid or base through the titrator tip into the reaction cuvette. The solutions were stirred constantly and allowed to equilibrate at least 30 s after each addition before data were collected. All titrations were carried out from low to high and from high to low pH with similar results.\nTitration data for the CuL complex show two ionizable protons below pH 5."}, "[5]": {"assay": "Deoxyribose assay for hydroxyl radical production", "details": "for effect on OH• production by copper: relative to Cu2+ alone", "source_text": "Hydroxyl radicals, which are generated in this assay by Fenton-like conditions of copper, ascorbic acid, and H2O2, degrade deoxyribose to give thiobarbituric acid (TBA)-reactive products with absorbance at 532 nm. Ligands added to the reaction mixture attenuate the amount of TBA-reactive species by altering the coordination environment around copper. […] The 2-deoxyribose assay was used to measure hydroxyl radical formation (Halliwell, B.; Gutteridge, […]. Anal. Biochem. 1987, 165, 215-219). A mixture of copper, ascorbic acid, and hydrogen peroxide generates hydroxyl radicals by Fenton-like chemistry. Hydroxyl radicals attack 2-deoxyribose to form malondialdehyde (MDA), which upon heating with TBA under acidic conditions produces a pink chromophore (λmax=532 nm). Chelators that prevent copper from reacting with ascorbic acid and hydrogen peroxide result in less chromophore formation. All assays were performed using 20 mM NaH2PO4 buffered to pH 7.4. The following reagents were added sequentially to obtain a 1 mL buffered solution with these final concentrations: chelator (10-20 μM), CuSO4 (10 μM), 2-deoxyribose (15 mM), H2O2 (100 μM), and ascorbic acid (2 mM). For photolyzed samples, 500 μM solutions of [Cu(OH2)(cage)] in 20 mM pH 7.4 NaH2PO4 buffer were photolyzed in screwtop quartz cuvettes for 4 min in the photoreactor, then immediately diluted into the deoxyribose reaction mixtures to obtain final concentrations of 10 μM in Cu. Stock solutions of CuSO4, ascorbic acid, and H2O2 were prepared fresh daily, other solutions were prepared weekly. […] The temperature was increased to 100° C. for 20 min, then cooled to room temperature and the absorbance at 532 nm was recorded. Values are reported as A/A0 where A0 is the absorbance without chelator present and A is the absorbance with chelator added. The value for CuSO4 alone is A/A0=1. Error bars represent standard deviations from measurements done in at least triplicate."}, "[6]": {"details": "cited from earlier work"}, "[7]": {"assay": "Competition study of nitrilotriacetic acid (NTA) vs. cage for Cu2+", "assay_type": "binding", "details": "competition with NTA, 50 mM HEPES pH 7.4, 25° C., refined", "protocol": "Solutions of CuL (where L=cage^2−) were prepared by dissolving [Cu(OH2)cage] that was recrystallized from methanol into 50 mM HEPES (N-(2-hydroxyethyl)-piperazine-N′-2-ethanesulfonic acid) buffer, pH 7.4, with initial concentrations ranging from 03-1.5 mM. The reaction vessel was a 3-mL cuvette and initial solution volumes were 1 mL. All titrations were carried out at 25° C. Aliquots (1-2 μL) of the competitive chelator NTA (100 mM) were pipetted into CuL solutions and monitored spectrophotometrically. After each addition, solutions were manually mixed and equilibrated for 5 min before data were collected. Reported errors in log β were calculated from the standard deviation of three runs."}, "[8]": {"assay": "Photolysis with 350 nm UV light, followed by UV-vis and LC-MS", "assay_type": "physicochemical", "details": "pH 7.4 phosphate buffer", "source_text": "The shift in the d-d band centered at 580 nm indicates a reorganization of the coordination sphere upon photolysis. The band for the intact Cu complex 2 disappears and is replaced by bands corresponding to the expected photoproducts 3 and 4, as confirmed by their mass spectra and by comparison to a picolinamide standard for 3. […] Reduction to Cu1+ is also possible as a result of photolysis, although it would likely reoxidize to Cu2+ under these experimental conditions.\nAll chemicals were purchased commercially and used without further purification. […] Elemental analysis was performed by Columbia Analytical Services, Inc. IR spectra were measured on a Nicolet 380 FT-IR. High-resolution, fast-atom bombardment (HR-FABMS) mass spectra were recorded on JEOL JMS-SX-102 instrument. […] A Varian Polaris C18 (150×1.0 mm) column was used and peaks were detected by UV absorption at 254 nm. […] UV-vis spectra were recorded on a Cary 50 UV-vis spectrophotometer. […]"}}, "note": "Like-named read-outs stand apart in the source and are kept apart here."}
{"smiles": "O=C([O-])CN(CC(=O)[O-])CC(=O)O.[Cu+2]", "note": "[Cu(NTA)]", "values": [{"measurement": "Log β", "setting": "[1]", "result": 12.7}]}
{"smiles": "O=C(CC(NC(=O)c1ccccn1)c1ccccc1[N+](=O)[O-])NCc1ccccn1", "note": "(stereo not shown) [H2cage, Pyridine-2-carboxylic acid {1-(2-nitro-phenyl)-2-[(pyridine-2-ylmethyl)-carbamoyl]-ethyl}-amide]", "values": [{"measurement": "solubility in methanol and ethanol", "setting": "[2]", "result": "very soluble"}, {"measurement": "solubility in water", "setting": "[2]", "result": "moderately soluble"}, {"measurement": "dissociable (ionizable) protons", "setting": "[3]", "result": "no dissociable protons"}, {"measurement": "dissociable (ionizable) protons", "setting": "[3]; listed as apo-ligand", "result": "no ionizable protons"}, {"measurement": "pH at which protons are released from H2cage, higher value", "setting": "[4]; in the presence of Cu2+", "result": 4.8}, {"measurement": "pH at which protons are released from H2cage, lower value", "setting": "[4]; in the presence of Cu2+", "result": 3.3}, {"measurement": "protection of deoxyribose degradation", "setting": "[5]; compared to background reaction of Cu2+ alone, pH 7.4", "result": 50, "unit": "%"}]}
{"smiles": "O=C(O)CN(CC(=O)O)CC(=O)O", "note": "[NTA, nitrilotriacetic acid, reference compound]", "values": [{"measurement": "effect on OH• production by copper", "setting": "[5]; pH 7.4", "result": "promotes OH• production"}, {"measurement": "Kd", "setting": "[6]; pH 7.4, read-out: KD for Cu2+", "result": 0.023, "unit": "nM"}]}
{"smiles": "O=C(O)CN(CC(=O)O)CC(=O)O", "note": "[NTAH3]", "values": [{"measurement": "Log β", "setting": "[1]", "result": 13.76}]}
{"smiles": "O=C(O)CN(CC(=O)O)CC(=O)O", "note": "[NTAH4]", "values": [{"measurement": "Log β", "setting": "[1]", "result": 14.76}]}
{"smiles": "O=C1CC(c2ccccc2[N+](=O)[O-])[N](C(=O)c2ccccn2)[Cu]([OH])[N]1Cc1ccccn1", "note": "(stereo not shown) [[Cu(OH2)(cage)]]", "values": [{"measurement": "Kd", "setting": "[4]; pH 7.4, converted from log β, read-out: conditional dissociation constant, KD", "result": 0.016, "unit": "nM"}, {"measurement": "Log β (overall stability constant)", "setting": "[4]", "result": 10.8}, {"measurement": "Log β (overall stability constant)", "setting": "[4]; listed as CuL", "result": "10.80 ± 0.01"}, {"measurement": "Log β", "setting": "[7]", "result": "10.79 ± 0.06"}, {"measurement": "changes in UV-vis spectrum on exposure to UV light", "setting": "[8]", "result": "apparent within seconds"}, {"measurement": "time of photolysis until cleavage of the ligand is complete", "setting": "[8]; LC-MS", "result": "≤ 4", "unit": "min"}, {"measurement": "OH• production after uncaging by UV photolysis", "setting": "[5]; photolyzed for 4 min, increase in A532", "result": "increases OH• production"}]}
{"smiles": "NC(=O)c1ccccn1", "note": "[picolinamide]", "values": [{"measurement": "effect on OH• production by copper", "setting": "[5]; pH 7.4", "result": "improve the catalytic properties of the metal"}, {"measurement": "log value for the 1:1 species", "setting": "[6]; Cu2+ : ligand 1:1", "result": 2.87}, {"measurement": "log value for the 1:2 species", "setting": "[6]; Cu2+ : ligand 1:2", "result": 5.40}]}
